{"source": "patent US20260224554A1", "about": "“OBEFAZIMOD FOR TREATMENT OF ULCERATIVE COLITIS” (ABIVAX, priority 2023, published 2026)", "test_system": "subjects with Moderate to Severe Active Ulcerative Colitis", "experiment": "Follow-up Phase II open-label long-term study of ABX464 25 mg QD (ABX464-108), interim analysis", "format": "in vivo, human", "procedure": "• The primary objective of the study is to evaluate the long-term safety of ABX464 given at 25 mg once daily in subjects with Moderate to Severe Active Ulcerative Colitis • Number of Adverse Events (AEs) in ABX464 treated subjects\nThe secondary objectives are: • To evaluate the long-term effect of ABX464 on clinical remission; • Percentage of subjects reaching clinical remission at yearly visits. • To evaluate the long-term effect of ABX464 on endoscopic remission; • Percentage of subjects reaching endoscopic remission at yearly visits. • To evaluate the long-term effect of ABX464 on clinical response; • Percentage of subjects reaching clinical response at yearly visits. • To evaluate the long-term effect of ABX464 on endoscopic improvement; • Percentage of subjects reaching endoscopic improvement at yearly visits. • To evaluate the long-term effect of ABX464 on inflammatory markers (C-reactive protein (CRP), calprotectin); • The change from Baseline in CRP and fecal calprotectin levels. • To evaluate the safety profile of ABX464; • Number and rate of all AEs and causally-related AEs, all Serious Adverse Events (SAEs) and causally-related SAEs, all AEs of Special Interest (AESIs) and causally-related AESIs, classified by severity; • Incidence of AEs leading to investigational medicinal product discontinuation; • The number of clinically-significant laboratory abnormalities. • To evaluate the effect of ABX464 on miR-124 expression in total blood at every timepoint defined in the schedule of assessment. • Change relative to baseline in miRNA-124 expression in total blood at every defined timepoint.\nFor the purpose of the study, the following definitions will be applied: • Clinical remission based on the Mayo Scoring system, is defined as stool frequency subscore=0 or 1 and rectal bleeding subscore=0 and endoscopy subscore=0 or 1 (modified to exclude friability). • Clinical Response is defined as a reduction from baseline in modified Mayo Score of at least 2 points and greater than or equal to 30 percent from baseline with an accompanying decrease in rectal bleeding sub-score of greater than or equal to 1 point or absolute rectal bleeding sub-score of less than or equal to 1 point. • Endoscopic remission defined as a Mayo endoscopic sub score of 0. • Endoscopic improvement is defined as a Mayo endoscopic sub score of ≤1 (excluding friability).\nThis study is an open-label study aiming at evaluating the long-term safety and the efficacy profile of ABX464 given once a day (QD) at 25 mg in subjects who have been previously enrolled in the ABX464-102 or ABX464-104 studies (OLE and maintenance studies) and who are willing to continue their treatment.\nAll subjects will receive ABX464 given at 25 mg QD.\nSubjects will be treated with ABX464 for a maximum period of 54 months. Subjects will be followed up quarterly. After the treatment period, subjects will be followed for 4 additional weeks for safety purposes.\nA subject will be eligible to participate in this study if ALL the following criteria are met: • 1. Subjects who previously completed the ABX464-102 or ABX464-104 clinical studies; • 2. Subjects should be in endoscopic improvement with a rectal bleeding sub-score=0 point at the end of treatment period in the previous study (ABX464-102 or ABX464-104). Endoscopic improvement is defined as: a Mayo endoscopic sub score of ≤1; • 3. Subjects able and willing to comply with study visits and procedures; • 4. […]", "data": [{"smiles": "FC(F)(F)Oc1ccc(Nc2ccc3cccc(Cl)c3n2)cc1", "note": "[Obefazimod, 8-chloro-N-[4-(trifluoromethoxy)phenyl]quinolin-2-amine]", "values": [{"measurement": "Durability of efficacy (MMS evaluation)", "setting": "25 mg QD in patients who achieved endoscopic improvement after 2-4 years of exposure to 50 mg", "result": "continues to have durable efficacy"}, {"measurement": "Proportion of patients with Fecal Calprotectin <250 microgm/gm", "setting": "63 patients who completed 48-week treatment with 25 mg QD", "result": 93, "unit": "%"}, {"measurement": "Disease control Rate (Stable+improved MMS)", "setting": "63 patients who completed 48-week treatment with 25 mg QD, after 2-4 years of 50 mg in ABX464-102/-104", "result": 84.1, "unit": "%"}, {"measurement": "New safety signals", "setting": "UC patients treated for up to 5 years", "result": "no new safety signals"}, {"measurement": "Patients withdrawn due to AE", "setting": "of 74 patients analyzed, 48-week treatment with 25 mg QD", "result": 2, "unit": "patients"}]}]}
